Source: PubChem BioAssay (NCI)
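Abbreviation: GI50, concentration required for 50% inhibition of growth. TGI: concentration producing complete growth inhibition.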

Key:
Assay in all cases: DTP human tumour cell line panel, 384-well format
786-0 renal = tested on: 786-0 renal
A498 renal = tested on: A498 renal
A549 NSCLC = tested on: A549 NSCLC
ACHN renal = tested on: ACHN renal
BT-549 breast = tested on: BT-549 breast
CAKI-1 renal = tested on: CAKI-1 renal
COLO 205 colon = tested on: COLO 205 colon
DU-145 prostate = tested on: DU-145 prostate
EKVX NSCLC = tested on: EKVX NSCLC
HCC-2998 colon = tested on: HCC-2998 colon
HCT-116 colon = tested on: HCT-116 colon
HCT-15 colon = tested on: HCT-15 colon
HL-60(TB) leukemia = tested on: HL-60(TB) leukemia
HOP-62 NSCLC = tested on: HOP-62 NSCLC
HOP-92 NSCLC = tested on: HOP-92 NSCLC
HS 578T breast = tested on: HS 578T breast
HT29 colon = tested on: HT29 colon
IGROV1 ovarian = tested on: IGROV1 ovarian
KM12 colon = tested on: KM12 colon
LOX IMVI melanoma = tested on: LOX IMVI melanoma
M14 melanoma = tested on: M14 melanoma
MALME-3M melanoma = tested on: MALME-3M melanoma
MCF7 breast = tested on: MCF7 breast
MDA-MB-231 breast = tested on: MDA-MB-231 breast
MDA-MB-435 melanoma = tested on: MDA-MB-435 melanoma
MDA-MB-468 breast = tested on: MDA-MB-468 breast
MOLT-4 leukemia = tested on: MOLT-4 leukemia
NCI-H226 lung = tested on: NCI-H226 lung
NCI-H23 lung = tested on: NCI-H23 lung
NCI-H322M lung = tested on: NCI-H322M lung
NCI-H460 NSCLC = tested on: NCI-H460 NSCLC
NCI-H522 lung = tested on: NCI-H522 lung
NCI/ADR-RES ovarian = tested on: NCI/ADR-RES ovarian
OVCAR-3 ovarian = tested on: OVCAR-3 ovarian
OVCAR-4 ovarian = tested on: OVCAR-4 ovarian
OVCAR-5 ovarian = tested on: OVCAR-5 ovarian
OVCAR-8 ovarian = tested on: OVCAR-8 ovarian
PC-3 prostate = tested on: PC-3 prostate
RPMI-8226 leukemia = tested on: RPMI-8226 leukemia
RXF 393 renal = tested on: RXF 393 renal
SF-268 CNS = tested on: SF-268 CNS
SF-295 CNS = tested on: SF-295 CNS
SF-539 CNS = tested on: SF-539 CNS
SK-MEL-28 melanoma = tested on: SK-MEL-28 melanoma
SK-MEL-5 melanoma = tested on: SK-MEL-5 melanoma
SK-OV-3 ovarian = tested on: SK-OV-3 ovarian
SN12C renal = tested on: SN12C renal
SNB-19 CNS = tested on: SNB-19 CNS
SNB-75 CNS = tested on: SNB-75 CNS
SR leukemia = tested on: SR leukemia
SW-620 colon = tested on: SW-620 colon
T-47D breast = tested on: T-47D breast
TK-10 renal = tested on: TK-10 renal
U251 glioblastoma = tested on: U251 glioblastoma
UACC-257 melanoma = tested on: UACC-257 melanoma
UACC-62 melanoma = tested on: UACC-62 melanoma
UO-31 renal = tested on: UO-31 renal

COc1cc2nccc(Oc3ccc(NC(=O)Nc4cc(C)on4)c(Cl)c3)c2cc1OC
GI50 (786-0 renal): 3.79 µM
TGI (786-0 renal): 12 µM
GI50 (A498 renal): 5.6 µM
TGI (A498 renal): 21 µM
GI50 (A549 NSCLC): 3.25 µM
TGI (A549 NSCLC): 11 µM
GI50 (ACHN renal): 3.53 µM
TGI (ACHN renal): 11.6 µM
GI50 (BT-549 breast): 3.2 µM
TGI (BT-549 breast): 7.18 µM
GI50 (CAKI-1 renal): 2.67 µM
TGI (CAKI-1 renal): 6.87 µM
GI50 (COLO 205 colon): 2.59 µM
TGI (COLO 205 colon): 8.26 µM
GI50 (DU-145 prostate): 5.63 µM
TGI (DU-145 prostate): 81.3 µM
GI50 (EKVX NSCLC): 4.4 µM
TGI (EKVX NSCLC): 20.9 µM
GI50 (HCC-2998 colon): 23.9 µM
TGI (HCC-2998 colon): 91.9 µM
GI50 (HCT-116 colon): 3.51 µM
TGI (HCT-116 colon): 11.5 µM
GI50 (HCT-15 colon): 4.16 µM
TGI (HCT-15 colon): > 100 µM
GI50 (HL-60(TB) leukemia): 2.87 µM
TGI (HL-60(TB) leukemia): 5.3 µM
GI50 (HOP-62 NSCLC): 9.77 µM
TGI (HOP-62 NSCLC): > 100 µM
GI50 (HOP-92 NSCLC): 1.7 µM
TGI (HOP-92 NSCLC): 3.33 µM
GI50 (HS 578T breast): 2.08 µM
TGI (HS 578T breast): 7.41 µM
GI50 (HT29 colon): 3.17 µM
TGI (HT29 colon): 12.1 µM
GI50 (IGROV1 ovarian): 2.22 µM
TGI (IGROV1 ovarian): 5.21 µM
GI50 (KM12 colon): 0.346 µM
TGI (KM12 colon): > 100 µM
GI50 (LOX IMVI melanoma): 4.08 µM
TGI (LOX IMVI melanoma): 11 µM
GI50 (M14 melanoma): 3.72 µM
TGI (M14 melanoma): 15.3 µM
GI50 (MALME-3M melanoma): 1.81 µM
TGI (MALME-3M melanoma): 4.39 µM
GI50 (MCF7 breast): 4.99 µM
TGI (MCF7 breast): 31.6 µM
GI50 (MDA-MB-231 breast): 2.38 µM
TGI (MDA-MB-231 breast): 6.83 µM
GI50 (MDA-MB-435 melanoma): 7.46 µM
TGI (MDA-MB-435 melanoma): 73.4 µM
GI50 (MDA-MB-468 breast): 3.51 µM
TGI (MDA-MB-468 breast): 8.5 µM
GI50 (MOLT-4 leukemia): 1.45 µM
TGI (MOLT-4 leukemia): 2.99 µM
GI50 (NCI-H226 lung): 0.906 µM
TGI (NCI-H226 lung): 3.39 µM
GI50 (NCI-H23 lung): 2.65 µM
TGI (NCI-H23 lung): 7.77 µM
GI50 (NCI-H322M lung): 3.91 µM
TGI (NCI-H322M lung): 13.9 µM
GI50 (NCI-H460 NSCLC): 4.58 µM
TGI (NCI-H460 NSCLC): 19 µM
GI50 (NCI-H522 lung): 2.51 µM
TGI (NCI-H522 lung): 6.54 µM
GI50 (NCI/ADR-RES ovarian): 2.9 µM
TGI (NCI/ADR-RES ovarian): 8.81 µM
GI50 (OVCAR-3 ovarian): 5.25 µM
TGI (OVCAR-3 ovarian): 20.1 µM
GI50 (OVCAR-4 ovarian): 5.71 µM
TGI (OVCAR-4 ovarian): 25 µM
GI50 (OVCAR-5 ovarian): 4.4 µM
TGI (OVCAR-5 ovarian): 21.2 µM
GI50 (OVCAR-8 ovarian): 4.45 µM
TGI (OVCAR-8 ovarian): 41 µM
GI50 (PC-3 prostate): 6.29 µM
TGI (PC-3 prostate): > 100 µM
GI50 (RPMI-8226 leukemia): 3.79 µM
TGI (RPMI-8226 leukemia): 15.1 µM
GI50 (RXF 393 renal): 1.65 µM
TGI (RXF 393 renal): 4.28 µM
GI50 (SF-268 CNS): 3.06 µM
TGI (SF-268 CNS): 8.86 µM
GI50 (SF-295 CNS): 3.18 µM
TGI (SF-295 CNS): 11.5 µM
GI50 (SF-539 CNS): 1.24 µM
TGI (SF-539 CNS): 2.95 µM
GI50 (SK-MEL-28 melanoma): 4.26 µM
TGI (SK-MEL-28 melanoma): 21 µM
GI50 (SK-MEL-5 melanoma): 3.35 µM
TGI (SK-MEL-5 melanoma): 11.8 µM
GI50 (SK-OV-3 ovarian): 6.78 µM
TGI (SK-OV-3 ovarian): 67.1 µM
GI50 (SN12C renal): 2.95 µM
TGI (SN12C renal): 9.88 µM
GI50 (SNB-19 CNS): 16.6 µM
TGI (SNB-19 CNS): > 100 µM
GI50 (SNB-75 CNS): 2.53 µM
TGI (SNB-75 CNS): 6.7 µM
GI50 (SR leukemia): 3.73 µM
TGI (SR leukemia): 5.34 µM
GI50 (SW-620 colon): 2.82 µM
TGI (SW-620 colon): 7.18 µM
GI50 (T-47D breast): 4.17 µM
TGI (T-47D breast): 23.1 µM
GI50 (TK-10 renal): 19.9 µM
TGI (TK-10 renal): > 100 µM
GI50 (U251 glioblastoma): 9.48 µM
TGI (U251 glioblastoma): > 100 µM
GI50 (UACC-257 melanoma): 11.9 µM
TGI (UACC-257 melanoma): 30.3 µM
GI50 (UACC-62 melanoma): 2.9 µM
TGI (UACC-62 melanoma): 13.5 µM
GI50 (UO-31 renal): 2.75 µM
TGI (UO-31 renal): 5.98 µM
